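In this assay, cells in 96-well plates receive the compound at five concentrations for 48 hours. Endpoints are linearly interpolated between the surrounding concentrations. At the TGI there is no net growth.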
Tests used:
Experiment in all cases: NCI tumour cell line growth inhibition, 48 h
A498 renal = tested on: A498 renal
CCRF-CEM leukemia = tested on: CCRF-CEM leukemia
HOP-62 NSCLC = tested on: HOP-62 NSCLC
A549 NSCLC = tested on: A549 NSCLC
SN12K1 renal = tested on: SN12K1 renal
SF-539 CNS = tested on: SF-539 CNS
NCI-H460 lung = tested on: NCI-H460 lung
UACC-62 melanoma = tested on: UACC-62 melanoma
DMS 114 small cell lung = tested on: DMS 114 small cell lung
DLD-1 colon = tested on: DLD-1 colon
SN12C renal = tested on: SN12C renal
MCF7 breast = tested on: MCF7 breast
RXF 393 renal = tested on: RXF 393 renal
HL-60(TB) leukemia = tested on: HL-60(TB) leukemia
XF 498 CNS = tested on: XF 498 CNS
IGROV1 ovarian = tested on: IGROV1 ovarian
DMS 273 small cell lung = tested on: DMS 273 small cell lung
EKVX NSCLC = tested on: EKVX NSCLC
SNB-19 CNS = tested on: SNB-19 CNS
SK-MEL-5 melanoma = tested on: SK-MEL-5 melanoma
K-562 leukemia = tested on: K-562 leukemia
SNB-78 CNS = tested on: SNB-78 CNS
UACC-257 melanoma = tested on: UACC-257 melanoma
P388 leukemia = tested on: P388 leukemia
HOP-92 NSCLC = tested on: HOP-92 NSCLC
HCT-15 colon = tested on: HCT-15 colon
HCT-116 colon = tested on: HCT-116 colon
MALME-3M melanoma = tested on: MALME-3M melanoma
OVCAR-8 ovarian = tested on: OVCAR-8 ovarian
MOLT-4 leukemia = tested on: MOLT-4 leukemia
SW-620 colon = tested on: SW-620 colon
OVCAR-3 ovarian = tested on: OVCAR-3 ovarian
UO-31 renal = tested on: UO-31 renal
OVCAR-4 ovarian = tested on: OVCAR-4 ovarian
SK-MEL-2 melanoma = tested on: SK-MEL-2 melanoma
LOX IMVI melanoma = tested on: LOX IMVI melanoma
SF-268 CNS = tested on: SF-268 CNS
SNB-75 CNS = tested on: SNB-75 CNS
U251 CNS = tested on: U251 CNS
M19-MEL melanoma = tested on: M19-MEL melanoma
HT29 colon = tested on: HT29 colon
CAKI-1 renal = tested on: CAKI-1 renal
OVCAR-5 ovarian = tested on: OVCAR-5 ovarian
SK-MEL-28 melanoma = tested on: SK-MEL-28 melanoma
SK-OV-3 ovarian = tested on: SK-OV-3 ovarian
P388/ADR leukemia = tested on: P388/ADR leukemia
COLO 205 colon = tested on: COLO 205 colon
NCI-H23 lung = tested on: NCI-H23 lung
NCI/ADR-RES ovarian = tested on: NCI/ADR-RES ovarian
SF-295 CNS = tested on: SF-295 CNS
NCI-H522 lung = tested on: NCI-H522 lung
HOP-18 NSCLC = tested on: HOP-18 NSCLC
HCC-2998 colon = tested on: HCC-2998 colon
NCI-H226 lung = tested on: NCI-H226 lung
KM12 colon = tested on: KM12 colon
KM20L2 colon = tested on: KM20L2 colon
RPMI-8226 leukemia = tested on: RPMI-8226 leukemia
LXFL 529 NSCLC = tested on: LXFL 529 NSCLC
M14 melanoma = tested on: M14 melanoma
TK-10 renal = tested on: TK-10 renal
ACHN renal = tested on: ACHN renal
RXF-631 renal = tested on: RXF-631 renal
SR leukemia = tested on: SR leukemia
786-0 renal = tested on: 786-0 renal

Measured: TGI

CCCN1C(=O)/C(=C(/O)C(=O)OCC)C(c2ccc(OC)c(OC)c2)C1=O (stereo not drawn)
> 100 µM: A498 renal | CCRF-CEM leukemia | HOP-62 NSCLC | A549 NSCLC | SN12K1 renal | SF-539 CNS | UACC-62 melanoma | DMS 114 small cell lung | DLD-1 colon | SN12C renal | MCF7 breast | RXF 393 renal | HL-60(TB) leukemia | XF 498 CNS | IGROV1 ovarian | DMS 273 small cell lung | EKVX NSCLC | SNB-19 CNS | SK-MEL-5 melanoma | K-562 leukemia | SNB-78 CNS | UACC-257 melanoma | P388 leukemia | HOP-92 NSCLC | HCT-15 colon | HCT-116 colon | MALME-3M melanoma | OVCAR-8 ovarian | MOLT-4 leukemia | SW-620 colon | UO-31 renal | OVCAR-4 ovarian | SK-MEL-2 melanoma | LOX IMVI melanoma | SF-268 CNS | SNB-75 CNS | U251 CNS | M19-MEL melanoma | HT29 colon | CAKI-1 renal | OVCAR-5 ovarian | SK-MEL-28 melanoma | SK-OV-3 ovarian | P388/ADR leukemia | COLO 205 colon | NCI-H23 lung | NCI/ADR-RES ovarian | SF-295 CNS | NCI-H522 lung | HOP-18 NSCLC | HCC-2998 colon | NCI-H226 lung | KM12 colon | KM20L2 colon | RPMI-8226 leukemia
> 31.6 µM: NCI-H460 lung
> 66.1 µM: OVCAR-3 ovarian

NC(=S)N/N=C(\C(=O)Nc1ccc(Cl)c(Cl)c1)C1=NN(c2ccccc2)C(c2cccc([N+](=O)[O-])c2)CC1=O (stereo not drawn)
48.1 µM: LXFL 529 NSCLC
70.9 µM: MOLT-4 leukemia
50.8 µM: SF-539 CNS
11.6 µM: HCT-116 colon
46.9 µM: NCI-H23 lung
65.5 µM: K-562 leukemia
51.4 µM: OVCAR-3 ovarian
30.8 µM: LOX IMVI melanoma
84.2 µM: HOP-62 NSCLC
99.7 µM: SNB-75 CNS
72.6 µM: IGROV1 ovarian
93.6 µM: NCI-H226 lung
45.2 µM: DMS 273 small cell lung
34.8 µM: HT29 colon
63 µM: OVCAR-4 ovarian
14.4 µM: RPMI-8226 leukemia
47.5 µM: DLD-1 colon
83.1 µM: UACC-257 melanoma
62 µM: CCRF-CEM leukemia
46.8 µM: KM20L2 colon
50.5 µM: M19-MEL melanoma
17 µM: U251 CNS
36.3 µM: COLO 205 colon
57.2 µM: SF-295 CNS
36.8 µM: 786-0 renal
35.5 µM: SW-620 colon
> 100 µM: A498 renal | A549 NSCLC | NCI-H460 lung | UACC-62 melanoma | HL-60(TB) leukemia | XF 498 CNS | EKVX NSCLC | SNB-19 CNS | SK-MEL-5 melanoma | SNB-78 CNS | HCT-15 colon | MALME-3M melanoma | OVCAR-8 ovarian | UO-31 renal | M14 melanoma | SK-MEL-2 melanoma | TK-10 renal | SF-268 CNS | ACHN renal | RXF-631 renal | SR leukemia | CAKI-1 renal | OVCAR-5 ovarian | SK-MEL-28 melanoma | SK-OV-3 ovarian | HOP-18 NSCLC | HCC-2998 colon | KM12 colon
38.5 µM: SN12C renal
71.2 µM: DMS 114 small cell lung
